Source: PubChem BioAssay AID1963972 (Molecular Pharmacology Branch, DTP, NCI, 2024)

System: 945468-187-T-J2-PDC spheroids viability
Assay: Anticancer human tumor 945468-187-T-J2-PDC patient-derived rectal carcinoma cell line growth inhibition [PI3K]
Settings: spheroids with HUVEC and MSC; for IC50: curve of first compound; for viability, T/C: stronger effect = lower value
Procedure, shortened: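 Combination activity was assessed by viability in multicellular tumor spheroids carrying HUVEC and MSC components. Agents were tested with PI3K inhibitors from a Cmax-based top dose (or 10 microM) downward in half-log increments.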
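Further: spheroids exposed to compounds for seven days before reading.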

Work on `CC1(C)CCC(Nc2ncc(C(F)(F)F)c(-c3c[nH]c4c(P(C)(C)=O)c(C#N)ccc34)n2)CN1` (configuration not stated) + Cc1nc(NC(=O)N2CCCC2C(N)=O)sc1-c1ccnc(C(C)(C)C(F)(F)F)c1 yielded an IC50 (second compound 0.0316 µM) of 2650 nM, an IC50 (second compound 0.1 µM) of 2140 nM and an IC50 (second compound 0.316 µM) of over 10000 nM. For the same compound, the IC50 (second compound 1 µM) was over 10000 nM, the IC50 (second compound 3.16 µM) was 1980 nM and the IC50 (second compound 10 µM) was 2320 nM. It also gave a viability, T/C (second compound 0.0316 µM, first compound 0.0316 µM) of 95.8%, a viability, T/C (second compound 0.0316 µM, first compound 0.1 µM) of 104% and a viability, T/C (second compound 0.0316 µM, first compound 0.316 µM) of 78.4%. It also gave a viability, T/C (second compound 0.0316 µM, first compound 1 µM) of 62.9%, a viability, T/C (second compound 0.0316 µM, first compound 3.16 µM) of 47% and a viability, T/C (second compound 0.0316 µM, first compound 10 µM) of 45.3%. The viability, T/C (second compound 0.1 µM, first compound 0.0316 µM) was 87%, the viability, T/C (second compound 0.1 µM, first compound 0.1 µM) was 85.4% and the viability, T/C (second compound 0.1 µM, first compound 0.316 µM) was 93.2%. The viability, T/C (second compound 0.1 µM, first compound 1 µM) was 55.2%, the viability, T/C (second compound 0.1 µM, first compound 3.16 µM) was 53.1% and the viability, T/C (second compound 0.1 µM, first compound 10 µM) was 41.6%. The viability, T/C (second compound 0.316 µM, first compound 0.0316 µM) was 87.8%, the viability, T/C (second compound 0.316 µM, first compound 0.1 µM) was 130% and the viability, T/C (second compound 0.316 µM, first compound 0.316 µM) was 80.3%. The viability, T/C (second compound 0.316 µM, first compound 1 µM) was 59.2%, the viability, T/C (second compound 0.316 µM, first compound 3.16 µM) was 48.1% and the viability, T/C (second compound 0.316 µM, first compound 10 µM) was 45.5%. The viability, T/C (second compound 1 µM, first compound 0.0316 µM) was 89.8%, the viability, T/C (second compound 1 µM, first compound 0.1 µM) was 99.3% and the viability, T/C (second compound 1 µM, first compound 0.316 µM) was 91.4%. For the same compound, the viability, T/C (second compound 1 µM, first compound 1 µM) was 53.8%, the viability, T/C (second compound 1 µM, first compound 3.16 µM) was 48.5% and the viability, T/C (second compound 1 µM, first compound 10 µM) was 55.3%. The viability, T/C (second compound 3.16 µM, first compound 0.0316 µM) was 99.8%, the viability, T/C (second compound 3.16 µM, first compound 0.1 µM) was 106% and the viability, T/C (second compound 3.16 µM, first compound 0.316 µM) was 73.7%. The viability, T/C (second compound 3.16 µM, first compound 1 µM) was 57%, the viability, T/C (second compound 3.16 µM, first compound 3.16 µM) was 50.1% and the viability, T/C (second compound 3.16 µM, first compound 10 µM) was 43.1%. The viability, T/C (second compound 10 µM, first compound 0.0316 µM) was 81.8%, the viability, T/C (second compound 10 µM, first compound 0.1 µM) was 77.5% and the viability, T/C (second compound 10 µM, first compound 0.316 µM) was 48.9%. It also gave a viability, T/C (second compound 10 µM, first compound 1 µM) of 53.7%, a viability, T/C (second compound 10 µM, first compound 3.16 µM) of 60.2% and a viability, T/C (second compound 10 µM, first compound 10 µM) of 39.4%.
